ChEMBL document CHEMBL1130889, “The synthesis and biological evaluation of a novel series of indole PDE4 inhibitors I” (Bioorg Med Chem Lett, 1998)

Columns and labels:
[1] = tested on: PBMC; experiment: Inhibition of tumor necrosis factor-alpha release from activated human monocyte cells.; type: functional, cell-based
[2] = tested on: PBMC; experiment: Inhibition of tumor necrosis factor-alpha release from activated human monocyte cells in the presence of RP73401.; type: functional, cell-based
[3] = tested on: Mus musculus; experiment: Inhibition of LPS-induced tumor necrosis factor-alpha (TNF-alpha) production in mice at 50 mg/kg; type: functional
[4] = target: Phosphodiesterase 4 (Cavia porcellus); experiment: Binding affinity against PDE4 was determined using [3H]- rolipram in guinea pig brain membrane binding assay
[5] = target: Phosphodiesterase 4 (Cavia porcellus); experiment: Inhibitory activity against Phosphodiesterase type IV (PDE4) obtained from guinea-pig macrophage was evaluated
[6] = Area under the curve was evaluated in mice after intravenous administration; type: ADME, organism-based; settings: mouse, in vivo
[7] = Area under the curve was evaluated in mice after oral administration; type: ADME, organism-based; settings: mouse, in vivo
[8] = Volume of distribution was evaluated in mice after intravenous administration; type: ADME, organism-based; settings: mouse, in vivo, read-out: Vdss
[9] = Maximum time required to reach Cp max was evaluated in mice after oral administration; type: ADME, organism-based; settings: mouse, plasma
[10] = Maximum plasma concentration was evaluated in mice after oral administration; type: ADME, organism-based; settings: mouse, read-out: Cp max
[11] = Bioavailability was evaluated in mice after oral administration; type: ADME, organism-based; settings: mouse, in vivo, read-out: Bioavailabiility
[12] = Terminal half life was evaluated in mice after intravenous administration; type: ADME, organism-based; settings: mouse, in vivo
[13] = Terminal half life was evaluated in mice after oral administration; type: ADME, organism-based; settings: mouse, in vivo
[14] = Clearance was evaluated in mice after intravenous administration; type: ADME, organism-based; settings: mouse, in vivo
[15] = tested on: PBMC; experiment: Inhibition of tumor necrosis factor-alpha release from activated human monocyte cells at 0.3 uM; type: functional, cell-based
[16] = tested on: PBMC; experiment: Inhibition of tumor necrosis factor-alpha release from activated human monocyte cells at […]; type: functional, cell-based

Structure (SMILES)	IC50 [1] [nM]	IC50 [2] [nM]	inhibition in vivo at 50 mg/kg [3] [%]	Ki [4] [nM]	IC50 [5] [nM]	further results
CCCCCCCn1cc(C)c2ccc(C(=O)Nc3c(Cl)cncc3Cl)cc21	11	3	22	66	25	
COc1ccccc1Cn1cc(C)c2ccc(C(=O)Nc3c(Cl)cncc3Cl)cc21				54	80	
Cc1cn(CC2CCCCC2)c2cc(C(=O)Nc3c(Cl)cncc3Cl)ccc12	200	8	0	120	100	
COc1cccc(Cn2cc(C)c3ccc(C(=O)Nc4c(Cl)cncc4Cl)cc32)c1				75	60	
Cc1cn(Cc2cccc([N+](=O)[O-])c2)c2cc(C(=O)Nc3c(Cl)cncc3Cl)ccc12	34	2	16	75	52	
Cc1cn(CCCc2ccccc2)c2cc(C(=O)Nc3c(Cl)cncc3Cl)ccc12	168	3	17	41	25	
Cc1cn(CCCC2CCCCC2)c2cc(C(=O)Nc3c(Cl)cncc3Cl)ccc12	12	0.7	27	187	220	
Cc1nc(Cn2cc(C)c3ccc(C(=O)Nc4c(Cl)cncc4Cl)cc32)cs1	24.1	1.5	0	24	42	
CCc1cn(S(=O)(=O)c2ccc(C)cc2)c2cc(C(=O)Nc3c(Cl)cncc3Cl)ccc12				> 3745	2900	
Cc1c[nH]c2cc(C(=O)Nc3c(Cl)cncc3Cl)ccc12					5	
Cc1cn(Cc2ccc(C(N)=O)cc2)c2cc(C(=O)Nc3c(Cl)cncc3Cl)ccc12	53	< 1	0	220	300	
Cc1noc(C)c1Cn1cc(C)c2ccc(C(=O)Nc3c(Cl)cncc3Cl)cc21	580	18	0	75	187	
Cc1cn(CCC2CCCCC2)c2cc(C(=O)Nc3c(Cl)cncc3Cl)ccc12	2	0.7	0	21	3.2	
Cc1cn(CCc2ccccc2)c2cc(C(=O)Nc3c(Cl)cncc3Cl)ccc12	8	0.9		280	70	
COc1ccc(Cn2cc(C)c3ccc(C(=O)Nc4c(Cl)cncc4Cl)cc32)cc1	60	3	20			AUC [6]: 678 ng·h/mL; AUC [7]: 25.3 ng·h/mL; Vd [8]: 2.4 L/kg; Tmax [9]: 0.5 h; Cmax [10]: 9.9 ng/mL; bioavailability [11]: 3.7%; half-life [12]: 2.6 h; half-life [13]: 1.7 h; clearance [14]: 24.7 mL/min/kg
Cc1ccc(S(=O)(=O)n2cc(Cc3ccccc3)c3ccc(C(=O)Nc4c(Cl)cncc4Cl)cc32)cc1				> 3745	> 10000	
Cc1cn(CCN2CCOCC2)c2cc(C(=O)Nc3c(Cl)cncc3Cl)ccc12		3		172	380	IC50 [15]: 28 nM
Cc1cn(Cc2ccc(S(C)(=O)=O)cc2)c2cc(C(=O)Nc3c(Cl)cncc3Cl)ccc12	134	> 1	0	300	200	
Cc1cn(C2CCCC2)c2cc(C(=O)Nc3c(Cl)cncc3Cl)ccc12		3		374	15	IC50 [16]: 30 nM
Cc1cn(Cc2ccccc2)c2cc(C(=O)Nc3c(Cl)cncc3Cl)ccc12	23	4	0	135	18	
Cc1cn(Cc2cccc3ccccc23)c2cc(C(=O)Nc3c(Cl)cncc3Cl)ccc12	1300	10		60	46	
COc1ccc(C(=O)Nc2c(Cl)cncc2Cl)cc1OC1CCCC1						ED50 [3]: 10 mg/kg
Cc1cn(Cc2ccc3ccccc3c2)c2cc(C(=O)Nc3c(Cl)cncc3Cl)ccc12	90	10.5	0	7	5.2	
Cc1ccc(S(=O)(=O)n2cc(C)c3ccc(C(=O)Nc4c(Cl)cncc4Cl)cc32)cc1	300	3	0	712	45	
